In US20020165221A1, “Mediators of hedgehog signaling pathways, compositions and uses related thereto” (priority 2000, published 2002):

System: Hedgehog pathway
Test: Gli-Luc assay (Hedgehog-responsive Luciferase reporter), 10T1/2(s12) cells with OCT-SHH
Assay type: cell-based
Details: OCT-SHH 0.3 μg/ml
Protocol: Compounds to be tested are dissolved in DMSO to a concentration of 10 MM, and stored at −20° C. To activate the Hedgehog pathway in the assay cells, an octylated (lipid-modified) form of the N-terminal fragment of the Sonic Hedgehog protein (OCT-SHH) is used. This N-terminal SHH fragment is produced bacterially.
Compounds may be tested in the “Gli-Luc” assay below, using the cell line 10T(s12), wherein the cells contain a Hedgehog-responsive reporter construct utilizing Luciferase as the reporter gene. In this way, Hedgehog pathway signaling activity can be measured via the Gli-Luc response.
10t1/2(s12) cells are plated in a 96-well micro-titer plate (MTP) at 20,000 cells/well in full medium [DMEM with 10% FBS]. Then plates are placed in the incubator for incubation overnight (O/N), at 37° C. and 5% CO2. After 24 h, the medium is replaced with Luciferase-assay medium (DMEM with 0.5% FBS). Compounds are thawed and diluted in assay medium at 3:1000 (about 300-fold) resulting in a starting concentration of about 30 μM.
Subsequently, 150 μl of each 30 μM sample is added to the first wells (in triplicate). The MTP samples are then diluted at 3-fold dilutions to a total of seven wells, ultimately resulting in a regiment of seven dilutions in triplicate, for each compound. Next, the protein ligand OCT-SHH is diluted in Luciferase-assay medium and added to each well at a final concentration of 0.3 μg/ml. Plates are then returned to the incubator for further incubation O/N, at 37° C. and 5% CO2. After about 24 h, plates are removed from the incubator and the medium is aspirated/discarded. Wells are washed once with assay buffer [PBS +1 mM Mg^2+and 1 mM Ca^2+]. Then 50 μl of assay buffer is added to each well. The Luciferase assay reagent is prepared as described by the vendor (LucLite kit from Packard), and 50 μl is added to each well. Plates are incubated at room temperature (RT) for about 30 minutes after which the signals are read, again at RT, on a Topcount (Packard).

| Structure (SMILES) | IC50 [nM] |
| --- | --- |
| COc1cccc(CN(C(=O)c2cccs2)C2CC(C(=O)N3CCNCC3)N(Cc3ccc(C)s3)C2)c1 (stereo not drawn) [A] | < 1000 |
| COc1cccc(CN(C(=O)C2CC2)C2CC(C(=O)N3CCNCC3)N(CC(C)C)C2)c1 (stereo not drawn) [A′] | < 10000 |
| CCc1ccc(CN2CC(N(Cc3cccc(OC)c3)C(=O)CC(C)(C)C)CC2C(=O)N2CCNCC2)s1 (stereo not drawn) [A″] | < 1000 |
| COc1cccc(CN(C(=O)C2CC2)C2CC(C(=O)N3CCNCC3)N(Cc3ccc(C)s3)C2)c1 (stereo not drawn) [B] | < 1000 |
| NCCNC(=O)C1CC(N(CCc2ccccc2)C(=O)C2CCCCC2)CN1CC1CCCCC1 (stereo not drawn) [B′] | < 10000 |
| COc1cccc(CN(C(=O)CC(C)(C)C)[C@H]2C[C@@H](C(=O)NC3CCNCC3)N(Cc3ccc4c(c3)OCO4)C2)c1 [B′″] | < 1000 |
| COC(=O)c1ccsc1CN1CC(N(Cc2cccc(OC)c2)C(=O)CC(C)(C)C)CC1C(=O)N1CCNCC1 (stereo not drawn) [B″] | < 1000 |
| COc1cccc(CN2CC(N(Cc3cccc(OC)c3)C(=O)C3CC3)CC2C(=O)N2CCNCC2)c1 (stereo not drawn) [C] | < 1000 |
| COc1cccc(CN(C(=O)CC(C)C)C2CC(C(=O)N3CCNCC3)N(Cc3ccc(OC)c(OC)c3OC)C2)c1 (stereo not drawn) [Compound I] | < 10000 |
| O=C(C1CC(N(CC2CCCCC2)CC2CC2)CN1Cc1ccc(F)cc1)N1CCCNCC1 (stereo not drawn) [C′] | < 10000 |
| COc1cccc(CN(C(=O)CC(C)(C)C)[C@H]2C[C@@H](C(=O)N3CCNCC3)N(Cc3ccc(Br)s3)C2)c1 [C″] | < 1000 |
| Cc1ccc(CN2CC(N(Cc3cccs3)C(=O)c3cccs3)CC2C(=O)N2CCNCC2)s1 (stereo not drawn) [D′] | < 10000 |
| COc1cccc(CN(C(=O)CC(C)(C)C)[C@H]2C[C@@H](C(=O)N(C)C3CCNC3)N(Cc3ccc4c(c3)OCO4)C2)c1 (stereo partly drawn) [D′″] | < 10000 |
| COc1cccc(CN(C(=O)CC(C)(C)C)[C@H]2C[C@@H](C(=O)N3CCNCC3)N(Cc3ccc(-c4cccs4)s3)C2)c1 [D″] | < 10000 |
| COc1cccc(CN(C(=O)C2CC2)C2CC(C(=O)N3CCNCC3)N(Cc3ccc4c(c3)OCO4)C2)c1 (stereo not drawn) [E] | < 100 |
| O=C(C1CC(N(CC2CCCCC2)CC2CCCO2)CN1Cc1ccc(F)cc1)N1CCNCC1 (stereo not drawn) [E′] | < 10000 |
| CCN1CCC(N(CC)C(=O)[C@@H]2C[C@H](N(Cc3cccc(OC)c3)C(=O)CC(C)(C)C)CN2Cc2ccc3c(c2)OCO3)C1 (stereo partly drawn) [E′″] | < 10000 |
| COc1cccc(CN(C(=O)CC(C)(C)C)C2CC(C(=O)N3CCNCC3)N(Cc3ccc(-c4cc(C(F)(F)F)n(C)n4)s3)C2)c1 (stereo not drawn) [E″] | < 10000 |
| COc1cccc(CN2CC(N(Cc3cccc(OC)c3)C(=O)CC(C)(C)C)CC2C(=O)N2CCNCC2)c1 (stereo not drawn) [F] | < 1000 |
| NCCNC(=O)C1CC(N(CCc2ccccc2)Cc2ccc([N+](=O)[O-])cc2)CN1CC1CCCCC1 (stereo not drawn) [F′] | < 10000 |
| CCNCCCN(CC)C(=O)[C@@H]1C[C@H](N(Cc2cccc(OC)c2)C(=O)CC(C)(C)C)CN1Cc1ccc2c(c1)OCO2 [F′″] | < 1000 |
| COc1cccc(CN(C(=O)CC(C)(C)C)C2CC(C(=O)N3CCNCC3)N(Cc3cc4ccccc4n3C)C2)c1 (stereo not drawn) [F″] | < 10000 |

| Structure (SMILES) | IC50 [nM] |
| --- | --- |
| COc1cccc(CN(C(=O)CC(C)C)C2CC(C(=O)N3CCNCC3)N(Cc3ccsc3)C2)c1 (stereo not drawn) [G] | < 1000 |
| COc1cccc(CN2CC(N(CCc3ccccc3)Cc3ccccc3C)CC2C(=O)NCCN)c1 (stereo not drawn) [G′] | < 10000 |
| COc1cccc(CN(C(=O)CC(C)(C)C)[C@H]2C[C@@H](C(=O)N3CCNCC3)N(Cc3cc(C)c(C)o3)C2)c1 [G″] | < 1000 |
| COc1cccc(CN(C(=O)CC(C)C)C2CC(C(=O)N3CCNCC3)N(Cc3ccc4c(c3)OCCO4)C2)c1 (stereo not drawn) [H] | < 100 |
| Cc1ccc(CN2CC(N(CCc3ccccc3)Cc3ccc(F)cc3)CC2C(=O)NCCN)s1 (stereo not drawn) [H′] | < 10000 |
| COc1cccc(CN(C(=O)CC(C)(C)C)[C@H]2C[C@@H](C(=O)N3CCNCC3)N(Cc3ccc(C=O)s3)C2)c1 [H″] | < 10000 |
| Cc1ccccc1CN(CCc1ccccc1)C1CC(C(=O)NCC2CCC(CN)CC2)N(Cc2ccc3c(c2)OCO3)C1 (stereo not drawn) [I′] | < 10000 |
| COc1cccc(CN(C(=O)NC(C)(C)C)[C@H]2C[C@@H](C(=O)N3CCNCC3)N(Cc3ccc4c(c3)OCO4)C2)c1 [I″] | < 100 |
| COc1cccc(CN(C(=O)CC(C)(C)C)C2CC(C(=O)N3CCNCC3)N(Cc3ccc4c(c3)OCCO4)C2)c1 (stereo not drawn) [J] | < 100 |
| CC(C)CN(C(=O)c1cccs1)C1CC(C(=O)NC2CCC(N)CC2)N(CC2CCCCC2)C1 (stereo not drawn) [J′] | < 10000 |
| COc1cccc(CN(C(=O)CC2CC2)[C@H]2C[C@@H](C(=O)N3CCNCC3)N(Cc3ccc4c(c3)OCO4)C2)c1 [J″] | < 100 |
| COc1cccc(CN(C(=O)CC(C)(C)C)C2CC(C(=O)N3CCNCC3)N(Cc3ccc(OC)c(OC)c3OC)C2)c1 (stereo not drawn) [K] | < 100 |
| CCOc1cc(CN2CC(N(Cc3cccc(OC)c3)C(=O)CC(C)(C)C)CC2C(=O)N2CCNCC2)ccc1OC (stereo not drawn) [K′] | < 10000 |
| COc1cccc(CN(C(=O)CC2CCCC2)C2CC(C(=O)N3CCNCC3)N(Cc3ccc4c(c3)OCO4)C2)c1 (stereo not drawn) [K″] | < 1000 |
| COc1cccc(CN(C(=O)CC(C)(C)C)C2CC(C(=O)N3CCNCC3)N(Cc3cc(Br)cs3)C2)c1 (stereo not drawn) [L] | < 10000 |
| COc1cccc(CN(C(=O)CC(C)C(F)(F)F)C2CC(C(=O)N3CCNCC3)N(Cc3ccc4c(c3)OCO4)C2)c1 (stereo not drawn) [L″] | < 1000 |
| COc1cccc(CN(C(=O)CC(C)(C)C)C2CC(C(=O)N3CCNCC3)N(Cc3ccc4c(c3)OCO4)C2)c1 (stereo not drawn) [M] | < 1000 |
| COc1cccc(CN(C(=O)CC(C)(C)C)C2CC(C(=O)N3CCNCC3)N(Cc3ccc(C)s3)C2)c1 (stereo not drawn) [M′] | < 100 |
| C=CCOC(=O)N(Cc1cccc(OC)c1)[C@H]1C[C@@H](C(=O)N2CCNCC2)N(Cc2ccc3c(c2)OCO3)C1 [M″] | < 1000 |
| COc1cccc(CN(C(=O)CC(C)(C)C)C2CC(C(=O)N3CCNCC3)N(Cc3ccc4c(c3)OCO4)C2)c1 (stereo not drawn) [N] | < 1000 |
| COc1cccc(CN(C(=O)C2CC2)C2CC(C(=O)N3CCNCC3)N(Cc3ccc(OC)c(OC)c3OC)C2)c1 (stereo not drawn) [N′] | < 1000 |
| COc1cccc(CN(C(=O)C(C)C)C2CC(C(=O)N3CCNCC3)N(Cc3ccc(C)s3)C2)c1 (stereo not drawn) [O] | < 100 |

| Structure (SMILES) | IC50 [nM] |
| --- | --- |
| COc1cccc(CN(C(=O)CC(C)(C)C)C2CC(C(=O)N3CCNCC3)N(Cc3ccc4c(c3)OCO4)C2)c1 (stereo not drawn) [O′] | < 100 |
| COc1cccc(CN(C(=O)NC(C)C)[C@H]2C[C@@H](C(=O)N3CCNCC3)N(Cc3ccc4c(c3)OCO4)C2)c1 [O″] | < 1000 |
| COc1cccc(CN(C(=O)C(C)C)C2CC(C(=O)N3CCNCC3)N(Cc3ccc4c(c3)OCO4)C2)c1 (stereo not drawn) [P] | < 100 |
| COc1cccc(CN(C(=O)C(C)C)C2CC(C(=O)N3CCNCC3)N(Cc3ccc(OC)c(OC)c3OC)C2)c1 (stereo not drawn) [P′] | < 10000 |
| COCC(=O)N(Cc1cccc(OC)c1)[C@H]1C[C@@H](C(=O)N2CCNCC2)N(Cc2ccc3c(c2)OCO3)C1 [P″] | < 10000 |
| COc1cccc(CN2CC(N(Cc3cccc(OC)c3)C(=O)c3cccs3)CC2C(=O)N2CCNCC2)c1 (stereo not drawn) [Q] | < 1000 |
| COc1cccc(CN(C(=O)c2ccco2)C2CC(C(=O)N3CCNCC3)N(Cc3ccc4c(c3)OCCO4)C2)c1 (stereo not drawn) [Q′] | < 10000 |
| COc1cccc(CN(C(=O)CC(C)CCC=C(C)C)C2CC(C(=O)N3CCNCC3)N(Cc3ccc4c(c3)OCO4)C2)c1 (stereo not drawn) [Q″] | < 10000 |
| COc1cccc(CN(C(=O)CC(C)(C)C)C2CC(C(=O)N3CCNCC3)N(Cc3ccccc3)C2)c1 (stereo not drawn) [R] | < 1000 |
| COc1cccc(CN(C(=O)CC(C)C)C2CC(C(=O)N3CCNCC3)N(Cc3ccc4c(c3)OCCO4)C2)c1 (stereo not drawn) [R′] | < 1000 |
| Cc1cccc(CN(C(=O)CC(C)C)[C@H]2C[C@@H](C(=O)N3CCNCC3)N(Cc3ccc4c(c3)OCO4)C2)c1 [R″] | < 1000 |
| COc1cccc(CN(C(=O)C2CC2)C2CC(C(=O)N3CCNCC3)N(CC3CCCCC3)C2)c1 (stereo not drawn) [S] | < 1000 |
| CCC(=O)N(Cc1cccc(OC)c1)C1CC(C(=O)N2CCNCC2)N(Cc2ccc(OC)c(OC)c2OC)C1 (stereo not drawn) [S′] | < 10000 |
| CC(C)CC(=O)N(Cc1cccc(C#N)c1)C1CC(C(=O)N2CCNCC2)N(Cc2ccc3c(c2)OCO3)C1 (stereo not drawn) [S″] | < 1000 |
| COc1cccc(CN(C(=O)CC(C)(C)C)C2CC(C(=O)N3CCNCC3)N(CC3CCCCC3)C2)c1 (stereo not drawn) [T] | < 1000 |
| COc1cccc(CN(C(=O)C2CCC2)C2CC(C(=O)N3CCNCC3)N(Cc3ccc(OC)c(OC)c3OC)C2)c1 (stereo not drawn) [T′] | < 1000 |
| CC(C)CC(=O)N(Cc1cccc(O)c1)C1CC(C(=O)N2CCNCC2)N(Cc2ccc3c(c2)OCO3)C1 (stereo not drawn) [T″] | < 1000 |
| Cc1ccc(CN2CC(N(Cc3cccs3)C(=O)C3CC3)CC2C(=O)N2CCNCC2)s1 (stereo not drawn) [U] | < 1000 |
| COc1cccc(CN(C(=O)C2CCC2)C2CC(C(=O)N3CCNCC3)N(Cc3ccc4c(c3)OCCO4)C2)c1 (stereo not drawn) [U′] | < 1000 |
| CC(C)CC(=O)N(Cc1cccc([N+](=O)[O-])c1)C1CC(C(=O)N2CCNCC2)N(Cc2ccc3c(c2)OCO3)C1 (stereo not drawn) [U″] | < 10000 |
| O=C(C1CC(N(Cc2cccs2)C(=O)C2CC2)CN1Cc1ccc2c(c1)OCO2)N1CCNCC1 (stereo not drawn) [V] | < 1000 |
| COc1cccc(CN(C(=O)C2CCCC2)C2CC(C(=O)N3CCNCC3)N(Cc3ccc(OC)c(OC)c3OC)C2)c1 (stereo not drawn) [V′] | < 1000 |
